Laboratory results as given in PubChem BioAssay AID1745844 (Carcinogenic Potency Database (CPDB), 2022).
Where “and” joins values, the source holds several entries; their conditions need not be identical. Identical values can stand only once. Calls of active or inactive are those of the source. How the calls were made is not given here.

Test system: rodent lifetime carcinogenesis bioassay, tumor incidence TD50
Test: carcinogenic potency in animals, long-term in vivo studies, CPDB compilation (AID 1745844)
Conditions: in feed

**Q.** How did the carcinogen call (mouse, strain C57BL/6, females, site: liver, lesion: hepatocellular carcinoma, dosed 52 weeks, study length 69 weeks) turn out when NC(=O)CCCCC(N)=O was run?
**A.** negative (inactive)

**Q.** And the TD50 (mouse, strain C57BL/6, females, site: lung, lesion: alveolar/bronchiolar adenoma, dosed 52 weeks, study length 69 weeks)?
**A.** 8550 mg/kg/day (inactive)

**Q.** And the carcinogen call (mouse, strain C57BL/6, males, site: liver, lesion: hepatocellular carcinoma, dosed 52 weeks, study length 69 weeks)?
**A.** negative (inactive)

**Q.** What about the carcinogen call (mouse, strain C57BL/6, males, site: lung, lesion: alveolar/bronchiolar adenoma, dosed 52 weeks, study length 69 weeks) of the same compound?
**A.** negative (inactive)

**Q.** And the carcinogen call (rat, strain Fischer 344, females, site: liver, lesion: one or several types, types not named, dosed 52 weeks, study length 69 weeks)?
**A.** negative (inactive)

**Q.** What about the TD50 (rat, strain Fischer 344, males, site: liver, lesion: hepatocellular carcinoma, dosed 52 weeks, study length 69 weeks) of the same compound?
**A.** 6420 mg/kg/day

**Q.** Nc1ncc([N+](=O)[O-])s1 was tested. Which carcinogen call (mouse, strain B6C3F1, females, site: any site (literature study), lesion: several types, types named in the paper, dosed 104 weeks, study length 104 weeks) did it give?
**A.** negative (inactive)

**Q.** What about the TD50 (mouse, strain B6C3F1, females, site: liver, lesion: hepatocellular adenoma + hepatocellular carcinoma + neoplastic nodule, dosed 104 weeks, study length 104 weeks) of the same compound?
**A.** 109 mg/kg/day

**Q.** And the TD50 (mouse, strain B6C3F1, females, site: lung, lesion: alveolar/bronchiolar adenoma + alveolar/bronchiolar carcinoma, dosed 104 weeks, study length 104 weeks)?
**A.** 63.5 mg/kg/day

**Q.** And the carcinogen call (mouse, strain B6C3F1, males, site: any site (literature study), lesion: several types, types named in the paper, dosed 104 weeks, study length 104 weeks)?
**A.** negative (inactive)

**Q.** What about the TD50 (rat, strain Fischer 344, females, site: any site (literature study), lesion: several types, types named in the paper, dosed 110 weeks, study length 111 weeks) of the same compound?
**A.** 326 mg/kg/day

**Q.** And the TD50 (rat, strain Fischer 344, females, site: uterus, lesion: endometrial stromal polyp, dosed 110 weeks, study length 111 weeks)?
**A.** 57.2 mg/kg/day (inactive)

**Q.** What about the TD50 (rat, strain Fischer 344, males, site: all sites + multiple organs, lesion: lymphocytic leukemia + malignant lymphoma + undifferentiated leukemia, dosed 110 weeks, study length 111 weeks) of the same compound?
**A.** 445 mg/kg/day

**Q.** What about the TD50 (rat, strain Fischer 344, males, site: all sites, lesion: leukemia + lymphoma, dosed 110 weeks, study length 111 weeks) of the same compound?
**A.** 27.6 mg/kg/day

**Q.** What about the TD50 (rat, strain Fischer 344, males, site: any site (literature study), lesion: several types, types named in the paper, dosed 110 weeks, study length 111 weeks) of the same compound?
**A.** 32.3 mg/kg/day

**Q.** What about the TD50 (rat, strain Fischer 344, males, site: liver, lesion: hepatocellular adenoma + hepatocellular carcinoma + neoplastic nodule, dosed 110 weeks, study length 111 weeks) of the same compound?
**A.** 318 mg/kg/day

**Q.** And the TD50 (rat, strain Fischer 344, males, site: multiple organs, lesion: granulocytic leukemia, dosed 110 weeks, study length 111 weeks)?
**A.** 90.2 mg/kg/day

**Q.** What about the TD50 (rat, strain Sprague-Dawley, females, site: any site (literature study), lesion: several types, types named in the paper, dosed 46 weeks, study length 66 weeks) of the same compound?
**A.** 32.5 mg/kg/day

**Q.** What about the TD50 (rat, strain Sprague-Dawley, females, site: kidney/pelvis, lesion: transitional-cell carcinoma, dosed 46 weeks, study length 66 weeks) of the same compound?
**A.** 157 mg/kg/day

**Q.** And the TD50 (rat, strain Sprague-Dawley, females, site: lung, lesion: alveolar-cell carcinoma, dosed 46 weeks, study length 66 weeks)?
**A.** 157 mg/kg/day

**Q.** And the TD50 (rat, strain Sprague-Dawley, females, site: mammary gland, lesion: several types, types named in the paper, dosed 46 weeks, study length 66 weeks)?
**A.** 44.6 mg/kg/day

**Q.** How did the TD50 (rat, strain Harlan, males, site: any site (literature study), lesion: several types, types named in the paper, dosed 72 weeks, study length 94 weeks) turn out when C#CC(OC(N)=O)(c1ccccc1)c1ccc(Cl)cc1 (centres undefined) was run?
**A.** 3.88 mg/kg/day

**Q.** What about the TD50 (rat, strain Harlan, males, site: brain, lesion: several types, types named in the paper, dosed 72 weeks, study length 94 weeks) of the same compound?
**A.** 462 mg/kg/day

**Q.** What about the TD50 (rat, strain Harlan, males, site: duodenum, lesion: adenocarcinoma, dosed 72 weeks, study length 94 weeks) of the same compound?
**A.** 24.9 mg/kg/day

**Q.** What about the TD50 (rat, strain Harlan, males, site: jejunum, lesion: adenocarcinoma, dosed 72 weeks, study length 94 weeks) of the same compound?
**A.** 8.78 mg/kg/day

**Q.** What about the TD50 (rat, strain Harlan, males, site: liver, lesion: several types, types named in the paper, dosed 72 weeks, study length 94 weeks) of the same compound?
**A.** 58.5 mg/kg/day

**Q.** For COc1ccc(OC)c(/C=C/c2ccc(N)cc2)c1, which TD50 (mouse, strain CD-1 HaM/ICR, females, site: any site (literature study), lesion: several types, types named in the paper, dosed 77 weeks, study length 90 weeks) is on record?
**A.** 118 mg/kg/day (inactive)

**Q.** And the carcinogen call (mouse, strain CD-1 HaM/ICR, females, site: liver, lesion: several types, types named in the paper, dosed 77 weeks, study length 90 weeks)?
**A.** negative (inactive)

**Q.** And the TD50 (mouse, strain CD-1 HaM/ICR, females, site: lung, lesion: several types, types named in the paper, dosed 77 weeks, study length 90 weeks)?
**A.** 152 mg/kg/day (inactive)

**Q.** What about the TD50 (mouse, strain CD-1 HaM/ICR, males, site: any site (literature study), lesion: several types, types named in the paper, dosed 77 weeks, study length 90 weeks) of the same compound?
**A.** 126 mg/kg/day

**Q.** What about the TD50 (mouse, strain CD-1 HaM/ICR, males, site: liver, lesion: hepatoma, dosed 77 weeks, study length 90 weeks) of the same compound?
**A.** 376 mg/kg/day

**Q.** What about the TD50 (mouse, strain CD-1 HaM/ICR, males, site: liver, lesion: several types, types named in the paper, dosed 77 weeks, study length 90 weeks) of the same compound?
**A.** 329 mg/kg/day

**Q.** And the TD50 (mouse, strain CD-1 HaM/ICR, males, site: lung, lesion: several types, types named in the paper, dosed 77 weeks, study length 90 weeks)?
**A.** 95.9 mg/kg/day and 115 mg/kg/day

**Q.** And the TD50 (rat, strain Charles River CD (Sprague-Dawley), males, site: any site (literature study), lesion: several types, types named in the paper, dosed 47 weeks, study length 51 weeks)?
**A.** 0.269 mg/kg/day

**Q.** What about the TD50 (rat, strain Charles River CD (Sprague-Dawley), males, site: ear, lesion: several types, types named in the paper, dosed 47 weeks, study length 51 weeks) of the same compound?
**A.** 1.45 mg/kg/day and 1.54 mg/kg/day

**Q.** And the TD50 (rat, strain Charles River CD (Sprague-Dawley), males, site: liver, lesion: several types, types named in the paper, dosed 47 weeks, study length 51 weeks)?
**A.** 2.61 mg/kg/day

**Q.** And the TD50 (rat, strain Charles River CD (Sprague-Dawley), males, site: skin, lesion: several types, types named in the paper, dosed 47 weeks, study length 51 weeks)?
**A.** 1.48 mg/kg/day

**Q.** What about the TD50 (rat, strain Charles River CD (Sprague-Dawley), males, site: small intestine, lesion: several types, types named in the paper, dosed 47 weeks, study length 51 weeks) of the same compound?
**A.** 0.866 mg/kg/day

**Q.** What about the TD50 (rat, strain Charles River CD (Sprague-Dawley), males, site: stomach, lesion: several types, types named in the paper, dosed 47 weeks, study length 51 weeks) of the same compound?
**A.** 0.721 mg/kg/day
